Biological target: Coagulation factor X (Homo sapiens, UniProt P00742)
Test: Binding affinity to FXa (unknown origin) assessed as inhibition constant

Chain of Coagulation factor X (P00742 41-179 limits assumed): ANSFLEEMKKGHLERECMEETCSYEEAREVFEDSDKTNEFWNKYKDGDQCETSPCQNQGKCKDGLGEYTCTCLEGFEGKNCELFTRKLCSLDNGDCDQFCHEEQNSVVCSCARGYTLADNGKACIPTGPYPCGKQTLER
Chain of Coagulation factor X (P00742 235-488 limits assumed): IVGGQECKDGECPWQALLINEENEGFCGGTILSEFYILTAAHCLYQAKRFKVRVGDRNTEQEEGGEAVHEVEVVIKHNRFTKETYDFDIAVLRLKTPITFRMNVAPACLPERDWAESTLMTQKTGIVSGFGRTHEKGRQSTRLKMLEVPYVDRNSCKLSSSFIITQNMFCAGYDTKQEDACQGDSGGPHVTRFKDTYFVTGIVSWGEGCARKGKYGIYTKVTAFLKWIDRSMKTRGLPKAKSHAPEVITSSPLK

Going from `NCc1cccc(-n2nc(C(F)(F)F)cc2C(=O)Nc2ccc(-c3ccccc3S(N)(=O)=O)cc2F)c1` to `N=C(N)c1ccc(C[C@@H](NC(=O)NC23CC4CC(CC(C4)C2)C3)C(=O)NCCc2ccccc2)cc1`, the Ki rises from 0.91 nM to 25 nM (27-fold). The first binds more tightly here.

`CC(C)N1CCC(NS(=O)(=O)CCNC(=O)c2ccc(Cl)s2)CC1` gave a Ki of 2 nM.

From ChEMBL document CHEMBL5257029, “Contemporary developments in the discovery of selective factor Xa inhibitors: A review” (Eur J Med Chem, 2016)
